Laboratory results as given in patent publication US20250041302A1, “PROLYL HYDROXYLASE DOMAIN INHIBITOR FOR TREATING HEMORRHAGIC OR BURN SHOCK” (THE GOVERNMENT OF THE UNITED STATES, AS REPRESENTED BY THE …, priority 2022, published 2025).
“Also recorded” adds a separate entry of the source.

How the values were obtained:
[1] = system: rats (polytrauma with 40% hemorrhage); experiment: HOE140 on tissue wet/dry weight ratio after polytrauma with 40% hemorrhage and lactated Ringer's resuscitation (FIG. 12); format: in vivo; conditions: for wet/dry weight ratio, brain: HOE140 0.4 mg/kg i.v. bolus 45 min after trauma, tissues 1 hour after resuscitation, vehicle 4.735±0.024
Procedure: FIG. 12. The effect of bradykinin receptor antagonist (HOE140) on tissue water content/vascular permeability in the brain, lung and skeletal muscle after polytrauma/hemorrhage and resuscitation of lactate Ringer's fluid (20% of Blood Volume). HOE140 or vehicle were given intravenously in rats (n=4/group) at 45 min after trauma (15 min prior to resuscitation of lactate Ringer's fluid). The tissues were harvested 2 hours after trauma. Values represent as means±SD. *:p<0.05 as compared with vehicle.
HOE140 (0.4 mg/kg) was administrated as a bolus intravenously at 45 min after trauma (15 min prior to Lactated Ringer's fluid resuscitation). At 1 hour after resuscitation, the rats were euthanized and the tissues were harvested for wet weight, and then transferred into the oven at 60° C. for 14 days to be weighed as dry weight. The wet/dry ratio represented the water content of the tissue.
Icatibant (HOE140), which is a selective competitive antagonist at the bradykinin type 2 (B2) receptor, is a synthetic decapeptide with a structure similar to bradykinin, but with 5 nonproteinogenic amino acids. It consists of ten amino acids in the following sequence: H-D-Arg-Arg-Pro-Hyp-Gly-Thi-Ser-D-Tic-Oic-Arg-OH. HOE140 (0.4 mg/kg in lactate Ringer's fluid) was administrated as a bolus intravenously at 45 min after trauma (15 min prior to lactated Ringer's fluid resuscitation (20% of Blood Volume)). At 1 hour after resuscitation, the rats were euthanized and the tissues were harvested for wet weight, and then transferred into the oven at 60° C. for 14 days to be weighed as dry weight. The wet/dry ratio represented the water content of the tissue.

[2] = system: rats with polytrauma and hemorrhage; experiment: TXA in polytrauma/hemorrhage (FIG. 11); format: in vivo
Procedure: FIG. 11. The effect of anti-fibrinolytic agent (tranexamic acid; TXA) on polytrauma/hemorrhage. Single dose of TXA (10 mg/kg) given prior to trauma. (FIG. 11A) Prothrombin time. Values represent as means±SEM. *:p<0.05, significant difference between TXA and Vehicle; #:p<0.05, significant difference as compared with baseline. (FIG. 11B) Lung wet/dry weight ratio. TXA was given just before trauma (BT, red), just after trauma (AT, green) and 45 min after the end of trauma (yellow). Values represent as means±SEM. *:p<0.05, significant difference as compared with vehicle. (FIG. 11C) Acute lung injury. TXA given 45 min after trauma (and 15 min prior to resuscitation). Levels of platelet and leukocytes (neutrophils and monocytes) infiltration, and C5a and neutrophil elastase in the lung as compared with FWB. *:p<0.05, significant difference between FWB and FWB/TXA; #:p<0.05, significant difference as compared with Non-R; $:p<0.05, significant difference as compared with Non-R, FWB and FWB/TXA. Values represent as means±SEM. Non-R: Non-Resuscitation; FWB: Fresh Whole Blood; TXA: Tranexamic Acid; AT: After Trauma; BT: Before Trauma.
Briefly, Sprague-Dawley rats (350-450 gram) were anesthetized with isoflurane/100% oxygen through a nosecone and allowed to breathe spontaneously. Cannulas were placed in the left femoral artery and vein for measurement of arterial blood pressure and to obtain vascular access (blood draw and resuscitation and drug administration) respectively. Polytrauma was induced by laparotomy, crush injury to the small intestines, the […], and the right leg skeletal muscle and by fracture of the right femur. In detail, a midline incision was made through the abdominal skin and underlying muscle layers. A 10-cm section of small intestines was isolated just anterior to the cecum and run gently through a clamp covered with silastic tubing with a 2-mm distance between the clamps to cause a gentle crush injury. The right and medial lobes of the liver will receive three crushes to each lobe using the same clamp. The intestines and liver were replaced, and the abdominal incision was closed with sutures in two layers. To fracture the […], a modification of a 3-point impact device was used by dropping six stainless-steel balls (65 g each) stacked together, from 36 inches through a guide tube (1 inch internal diameter) to impact on a rounded aluminum blade resting on the mid-right femur with the right leg resting on two aluminum stands, one under the hip and one under the knee. A large hemostat (5 in tongs) was used to clamp the muscle of the right leg 10 times. The crush injury was intended to cause microvascular damage, as opposed to cutting, chopping, or mincing of the tissue, which would have led to uncontrolled hemorrhage. The polytrauma was performed about 10 min followed immediately by hemorrhage. Blood volume was estimated as 6% of body weight±0.77. The rats were bled to lower mean arterial pressure to 40 mmHg within 5 min and maintained at 40 mmHg until 40% of estimated blood volume is removed. Hemorrhage is usually completed within 30 min. Hemorrhage was then discontinued, and blood pressure and heart rate will be allowed to freely compensate.
TXA was given just before trauma (BT, red), just after trauma (AT, green) and 45 min after the end of trauma (yellow). […] TXA was given 45 min after trauma (15 min prior to resuscitation).

[3] = TXA 15 min prior to FWB resuscitation at 60 min after trauma
[4] = single dose TXA 10 mg/kg prior to trauma

| SMILES | tissue wet/dry weight ratio / tissue water content and vascular permeability ([1]; HOE140 0.4 mg/kg i.v.) | wet/dry weight ratio, brain ([1]; n=4) | wet/dry weight ratio, brain ([1]; n=4, 0.4 mg/kg) | tissue wet/dry weight ratio / tissue water content and vascular permeability ([1]; HOE140 0.4 mg/kg i.v., 0.4 mg/kg) | wet/dry weight ratio, traumatized skeletal muscle ([1]; HOE140 0.4 mg/kg i.v., n=4, vehicle 4.491±0.112) | wet/dry weight ratio, intestine ([1]; HOE140 0.4 mg/kg i.v., n=4, vehicle 4.528±0.112) | fluid movement into the lung (ALI, lung wet/dry weight ratio) ([2]; TXA 10 mg/kg just after trauma and 45 min after the end of trauma) | level of C5a in the lung as compared with FWB [2, 3] | level of neutrophil elastase in the lung as compared with FWB [2, 3] | platelet and leukocyte infiltration in the lung as compared with FWB [2, 3] | circulatory plasmin activity ([2]; current study) | prothrombin time (PT) at 30 min after trauma [2, 4] | prothrombin time (PT) at 120 min after trauma [2, 4] |
| --- | --- | --- | --- | --- | --- | --- | --- | --- | --- | --- | --- | --- | --- |
| NC(N)=NCCC[C@@H](N)C(=O)N[C@@H](CCCN=C(N)N)C(=O)N1CCC[C@H]1C(=O)N1C[C@H](O)C[C@H]1C(=O)NCC(=O)N[C@@H](Cc1cccs1)C(=O)N[C@@H](CO)C(=O)N1Cc2ccccc2C[C@@H]1C(=O)N1[C@H](C(=O)N[C@@H](CCCN=C(N)N)C(=O)O)C[C@@H]2CCCC[C@@H]21 [Icatibant, H-D-Arg-Arg-Pro-Hyp-Gly-Thi-Ser-D-Tic-Oic-Arg-OH] | attenuated tissue wet/dry weight ratio | 4.674±0.023 | significantly declined | attenuated tissue wet/dry weight ratio; also recorded: reduced | 4.247±0.176 | 4.399±0.090 |  |  |  |  |  |  |  |
| NC[C@H]1CC[C@H](C(=O)O)CC1 [TXA, tranexamic acid] |  |  |  |  |  |  | reduces fluid movement into the lung | significantly reduced | significantly reduced | significantly reduced | not significantly changed | delayed elevation of prothrombin time | significantly elevated |
